Measurements reported in patent publication US11607462B2, “Systems and methods for minimally-invasive assessment of toxicity-induced tissue injury” (Northwestern University, priority 2017, dated 2023).
Blank lines part the entries; values can stand above or below the compound they belong to.

Legend:
rats [1] = test: Quantitative ex vivo gamma counting of ^99mTc-duramycin uptake in excised tissues after chemotoxic drug
Procedure: This initial quantitative study was conducted by determining changes in radioactivity uptake in excised tissues using gamma counting ex vivo. Experiments were designed to survey changes in ^99mTc-duramycin uptake in tissues from treated versus untreated control groups after administration of a single dosage of each chemotherapeutic drug for each population of animals. […] Accordingly, at designated time post-treatment, ^99mTc-duramycin was injected intravenously and each animal was euthanized for tissue collection and gamma counting. This is a standard practice in radionuclide studies that provides precise, quantitative biodistribution data for measuring changes in tracer uptake.
The data can be expressed in two ways—net change in ^99mTc-duramycin uptake per unit tissue in cyclophosphamide-treated tissues relative to the mean value of the non-treated control population (FIG. 1A), and fold changes in ^99mTc-duramycin uptake over the mean of control (1B).
An organ, such as the kidney, consists of different anatomical components (cortex, medulla, hilum), where the in vivo imaging data provide more spatial information by identifying signal changes within the substructures of an organ (see in vivo sections below).
Although the ex vivo gamma counting is a standard practice in radionuclide studies, a notable limitation is that the tissue collection may be prone to sampling errors. In addition, this approach provides limited spatial information in terms of the distribution within an intact organ/tissue.

rats [2] = test: In vivo single time point SPECT/CT/MRI imaging of ^99mTc-duramycin uptake (toxicity scan)
Procedure: (§1) The single time point studies were terminal so that they allowed immediate tissue retrieval for cross-validation using histopathological analyses. […] Each animal was injected with about 2 mCi of ^99mTc-duramycin and after 1 hour the SPECT/CT/MRI data were acquired. From each group, the animals were immediately euthanized after imaging. The organs and tissues from three randomly selected individuals were collected, fixed and processed for histopathology.
A second group of animals was with methotrexate as directed by the literature in an effort to examine whether early changes in toxicity would correlate with increases in ^99mTc-duramycin uptake.

rats [3] = test: Histopathology of organs and tissues collected after single time point imaging
Procedure: as §1

rats [4] = details: cyclophosphamide single dose; each individual normalized to own baseline
Procedure: This approach involved the acquisition of a baseline scan, prior to drug administration, followed by multiple post-treatment scans spanning the acute phase at 8, 48, 96, and 168 hours. […] In addition, the baseline scan for each animal serves as an internal control. The repeated noninvasive imaging allowed continuous monitoring of tissue changes with individualized data analysis.

[5] = cyclophosphamide single dose 80 mg/kg i.p., 2 days
[6] = cyclophosphamide single dose, day-2

- histopathology of joints (rats [3]; rat, in vivo): joint degeneration and thrombosis
Compound: CN(Cc1cnc2nc(N)nc(N)c2n1)c1ccc(C(=O)N[C@@H](CCC(=O)O)C(=O)O)cc1 [methotrexate]
- change in ^99mTc-duramycin uptake in tissues (rats [1]; rat, in vivo, 100 mg/kg): notable elevation in ^99mTc-duramycin uptake in a number of tissues
- most prominent tissues according to fold changes (rats [1]; rat, in vivo, 100 mg/kg): small intestine, colon, liver, thymus and kidneys
- tissues with the highest increase in ^99mTc-duramycin uptake (rats [1]; rat, in vivo, 100 mg/kg): kidneys, small intestine, liver, and colon
- changes in skin signals (rats [2]; rat, in vivo): non-uniform throughout the body
- signals in the joints (rats [2]; rat, in vivo): drastically elevated signals in the joints
- tissues with highest changes in terms of fold elevation (rats [2]; rat, in vivo): colon, kidney—medulla, bone, spleen, and kidney—cortex
- tissues with the highest signal changes as net ^99mTc-duramycin uptake per unit tissue (rats [2]; rat, in vivo): kidneys and colon

Compound: O=P1(N(CCCl)CCCl)NCCCO1 (stereo not drawn) [cyclophosphamide]
- tissues with highest fold changes in ^99mTc-duramycin uptake (rats [1]; [5]): thymus, adipose tissue, pancreas, brain, right ventricle, liver and bone
- tissues with the largest elevation in ^99mTc-duramycin uptake (rats [1]; [5]): kidneys, liver, spleen, thymus, lung, small intestine and bone
- key tissues with changes in ^99mTc-duramycin uptake (rats [2]; [6]): kidneys—medulla and cortex, spleen, thymus and gut
- region of the kidneys affected (rats [2]; [6]): primarily affect the infundibulum of the kidneys
- tissues with statistically elevated, relatively low signals (rats [2]; [6]): bones, adipose tissue, heart, lung, muscle, skin and stomach
- apoptotic index, kidney medulla (rats [3]; [6]): significantly elevated apoptotic index in the local tissue
- apoptotic index, thymus (rats [3]; [6]): significantly elevated apoptotic index
- histopathology of bones (epiphysis regions, marrow) (rats [3]; [6]): extensive decellularization in the marrow
- tissues with elevated coefficients of variation compared to the baseline (rats [4]): bone, colon, gut, heart, skin, and thymus

Compound: N.N.[Cl][Pt][Cl] [cisplatin]
- histopathology of kidney (rats [3]; rat, in vivo): cellular degradation and significantly elevated apoptosis in the cortical region
